Patent publication US4333938A, “Imino derivatives of 5-aminobenzodioxole-1,3 which are useful as medicaments” (Laboratoires Sarget, priority 1979, dated 1982)
Where “and” joins values, the source holds several entries; their conditions need not be identical. Equal entries are not always repeated.

How the values were obtained:
[1] = test system: carageenan-induced edema; assay: inhibition of carrageenan-induced edema; assay type: in vivo, male Wistar rat; details: oral
Experimental: The inflammation is produced in the male Wistar rat by injection of 0.1 ml of a 0.5% suspension of carageenan in physiological serum, into the muscular fascia of the metatarsal region of the hind foot of the animal. The test substance is administered orally at the same time as the carageenan or 30 or 60 min before carageenan. The edema is measured by plethysmometry three hours after the adminstration of the carrageenan.

[2] = solubility in water; assay type: physicochemical
[3] = oral toxicity (mortality) in the Wistar rat; assay type: in vivo; details: in vivo, 3000 mg/kg
Experimental: The percentages of mortality produced by the compounds of this invention when administered orally to Swiss mice are shown in Table 1. The animals, free from specific pathogenic organisms were housed in an air conditioned room for 24 to 48 hours before the start of the experiment. They were separated into groups of 5 males and 5 females. The materials were administered to animals which had been fasted for 24 hours by means of a gastric tube in suspension in a 6% thickened julep using a volume equivalent to 0.1 ml per 10 g of body weight. […] They remained under observation for two weeks before being sacrificed and autopsied.
The toxicities of the compounds of Examples 2 and 3 were determined in the Wistar rat. The protocol which was followed was the same as that described for the mice, except that the compounds were administered in a volume equivalent to 0.5 ml per 100 g of body weight of rat. […] The product of Example 3 produced no mortality at 2000 mg/kg and 20% mortality at 3000 mg/kg.

Cc1ccc(C=Nc2ccc3c(c2)OCO3)s1 [Example 2, N-(5-methyl-2-thienylidene)-5-aminobenzodioxole-1,3]
% inhibiting activity on carrageenan-induced edema ([1]; To - 30, 75 mg/kg): 21% | % inhibiting activity on carrageenan-induced edema ([1]; To - 30, 150 mg/kg): 47% | % inhibiting activity on carrageenan-induced edema ([1]; To - 30, 300 mg/kg): 61% | % inhibiting activity on carrageenan-induced edema ([1]; To - 60, 75 mg/kg): 15% | % inhibiting activity on carrageenan-induced edema ([1]; To - 60, 150 mg/kg): 26% | % inhibiting activity on carrageenan-induced edema ([1]; To - 60, 225 mg/kg): 49% | % inhibiting activity on carrageenan-induced edema ([1]; To - 60, 300 mg/kg): 66% | % inhibiting activity on carrageenan-induced edema ([1]; at To, 100 mg/kg): 30% | % inhibiting activity on carrageenan-induced edema ([1]; at To, 150 mg/kg): 64% | % inhibiting activity on carrageenan-induced edema ([1]; at To, 200 mg/kg): 33% | % inhibiting activity on carrageenan-induced edema ([1]; at To, 300 mg/kg): 59% | solubility in water [2]: insoluble in water

C(=Nc1ccc2c(c1)OCO2)c1cccnc1 [Example 3, N-(3-pyridylidene)-5-aminobenzodioxole-1,3]
% inhibiting activity on carrageenan-induced edema ([1]; To - 30 (30 min before carrageenan), 25 mg/kg): 34% | % inhibiting activity on carrageenan-induced edema ([1]; To - 30, 50 mg/kg): 41% and 38% | % inhibiting activity on carrageenan-induced edema ([1]; To - 30, 75 mg/kg): 44% | % inhibiting activity on carrageenan-induced edema ([1]; To - 30, 100 mg/kg): 50% and 41% | % inhibiting activity on carrageenan-induced edema ([1]; To - 30, 150 mg/kg): 53% | % inhibiting activity on carrageenan-induced edema ([1]; To - 30, 200 mg/kg): 66% | % inhibiting activity on carrageenan-induced edema ([1]; To - 30, 400 mg/kg): 67% and 72% | % inhibiting activity on carrageenan-induced edema ([1]; To - 60 (60 min before carrageenan), 25 mg/kg): 25% | % inhibiting activity on carrageenan-induced edema ([1]; To - 60, 50 mg/kg): 42% | % inhibiting activity on carrageenan-induced edema ([1]; To - 60, 75 mg/kg): 40% | % inhibiting activity on carrageenan-induced edema ([1]; To - 60, 100 mg/kg): 39% | % inhibiting activity on carrageenan-induced edema ([1]; To - 60, 200 mg/kg): 58% | % inhibiting activity on carrageenan-induced edema ([1]; To - 60, 400 mg/kg): 69% | % inhibiting activity on carrageenan-induced edema ([1]; at To, 100 mg/kg): 57% and 29% | % inhibiting activity on carrageenan-induced edema ([1]; at To, 200 mg/kg): 28% and 36% | % inhibiting activity on carrageenan-induced edema ([1]; at To, 400 mg/kg): 55% and 39% | solubility in water [2]: insoluble in water | mortality at 336 h [3]: 20%
